Like-named read-outs stand apart in the source and are kept apart here.
Key:
[1] = biological target: T1, hSCN3A (Homo sapiens, UniProt Q9NY46); experiment: Whole-cell patch-clamp electrophysiology, hSCN3A in HEK cells; assay type: cell-based
T1 construct: expressed in transfected cells
Experimental: (§1) Human Embryonic Kidney (HEK) cells were transfected with hSCN3A or hSCN9A constructs using lipofectamine reagent (Invitrogen), using standard techniques. […] Clones were screened for expression using the whole-cell voltage-clamp technique.
(§2) HEK cells stably transfected with hSCN3A or hSCN9A were maintained in DMEM medium supplemented with 10% heat-inactivated fetal bovine serum and 400 μg/ml G418 sulfate in an incubator at 37° C. with a humidified atmosphere of 10% CO2. […] For electrophysiological studies, cells were removed from the culture flask by brief trypsinization and replated at low density onto glass cover slips. Cells were typically used for electrophysiological experiments within 24 to 72 h after plating. […]
(§3) The voltage-dependence of inactivation was determined by applying a series of depolarizing prepulses (8 sec long in 10 mV increments) from a negative holding potential. […] Cells were then voltage clamped at the empirically determined V1/2.
(§4) Compounds were tested for their ability to inhibit hSCN3A or hSCN9A sodium channels by activating the channel with a 20 msec voltage step to 0 mV following an 8 second conditioning prepulse to the empirically determined V1/2 (Table B). Compound effect (% inhibition) was determined by difference in current amplitude before and after application of test compounds. […]

[2] = biological target: T2, hSCN9A (Homo sapiens, UniProt Q15858); experiment: Whole-cell patch-clamp electrophysiology, hSCN9A in HEK cells; assay type: cell-based
T2 construct: expressed in transfected cells
Experimental: as §1, §2, §3, §4

[3] = biological target: Nav1.8 (Homo sapiens, UniProt Q9Y5Y9); conditions: read-out: TTX IC-50; cited from earlier work
[4] = biological target: Nav1.6 (Homo sapiens, UniProt Q9UQD0); conditions: read-out: TTX IC-50; cited from earlier work
[5] = biological target: Nav1.9 (Homo sapiens, UniProt Q9UI33); conditions: read-out: TTX IC-50; cited from earlier work
[6] = biological target: Nav1.1 (Homo sapiens, UniProt P35498); conditions: read-out: TTX IC-50; cited from earlier work
[7] = biological target: Nav1.3 (Homo sapiens, UniProt Q9NY46); conditions: read-out: TTX IC-50; cited from earlier work
[8] = biological target: Nav1.2 (Homo sapiens, UniProt Q99250); conditions: read-out: TTX IC-50; cited from earlier work

T1 sequence (Q9NY46 whole entry): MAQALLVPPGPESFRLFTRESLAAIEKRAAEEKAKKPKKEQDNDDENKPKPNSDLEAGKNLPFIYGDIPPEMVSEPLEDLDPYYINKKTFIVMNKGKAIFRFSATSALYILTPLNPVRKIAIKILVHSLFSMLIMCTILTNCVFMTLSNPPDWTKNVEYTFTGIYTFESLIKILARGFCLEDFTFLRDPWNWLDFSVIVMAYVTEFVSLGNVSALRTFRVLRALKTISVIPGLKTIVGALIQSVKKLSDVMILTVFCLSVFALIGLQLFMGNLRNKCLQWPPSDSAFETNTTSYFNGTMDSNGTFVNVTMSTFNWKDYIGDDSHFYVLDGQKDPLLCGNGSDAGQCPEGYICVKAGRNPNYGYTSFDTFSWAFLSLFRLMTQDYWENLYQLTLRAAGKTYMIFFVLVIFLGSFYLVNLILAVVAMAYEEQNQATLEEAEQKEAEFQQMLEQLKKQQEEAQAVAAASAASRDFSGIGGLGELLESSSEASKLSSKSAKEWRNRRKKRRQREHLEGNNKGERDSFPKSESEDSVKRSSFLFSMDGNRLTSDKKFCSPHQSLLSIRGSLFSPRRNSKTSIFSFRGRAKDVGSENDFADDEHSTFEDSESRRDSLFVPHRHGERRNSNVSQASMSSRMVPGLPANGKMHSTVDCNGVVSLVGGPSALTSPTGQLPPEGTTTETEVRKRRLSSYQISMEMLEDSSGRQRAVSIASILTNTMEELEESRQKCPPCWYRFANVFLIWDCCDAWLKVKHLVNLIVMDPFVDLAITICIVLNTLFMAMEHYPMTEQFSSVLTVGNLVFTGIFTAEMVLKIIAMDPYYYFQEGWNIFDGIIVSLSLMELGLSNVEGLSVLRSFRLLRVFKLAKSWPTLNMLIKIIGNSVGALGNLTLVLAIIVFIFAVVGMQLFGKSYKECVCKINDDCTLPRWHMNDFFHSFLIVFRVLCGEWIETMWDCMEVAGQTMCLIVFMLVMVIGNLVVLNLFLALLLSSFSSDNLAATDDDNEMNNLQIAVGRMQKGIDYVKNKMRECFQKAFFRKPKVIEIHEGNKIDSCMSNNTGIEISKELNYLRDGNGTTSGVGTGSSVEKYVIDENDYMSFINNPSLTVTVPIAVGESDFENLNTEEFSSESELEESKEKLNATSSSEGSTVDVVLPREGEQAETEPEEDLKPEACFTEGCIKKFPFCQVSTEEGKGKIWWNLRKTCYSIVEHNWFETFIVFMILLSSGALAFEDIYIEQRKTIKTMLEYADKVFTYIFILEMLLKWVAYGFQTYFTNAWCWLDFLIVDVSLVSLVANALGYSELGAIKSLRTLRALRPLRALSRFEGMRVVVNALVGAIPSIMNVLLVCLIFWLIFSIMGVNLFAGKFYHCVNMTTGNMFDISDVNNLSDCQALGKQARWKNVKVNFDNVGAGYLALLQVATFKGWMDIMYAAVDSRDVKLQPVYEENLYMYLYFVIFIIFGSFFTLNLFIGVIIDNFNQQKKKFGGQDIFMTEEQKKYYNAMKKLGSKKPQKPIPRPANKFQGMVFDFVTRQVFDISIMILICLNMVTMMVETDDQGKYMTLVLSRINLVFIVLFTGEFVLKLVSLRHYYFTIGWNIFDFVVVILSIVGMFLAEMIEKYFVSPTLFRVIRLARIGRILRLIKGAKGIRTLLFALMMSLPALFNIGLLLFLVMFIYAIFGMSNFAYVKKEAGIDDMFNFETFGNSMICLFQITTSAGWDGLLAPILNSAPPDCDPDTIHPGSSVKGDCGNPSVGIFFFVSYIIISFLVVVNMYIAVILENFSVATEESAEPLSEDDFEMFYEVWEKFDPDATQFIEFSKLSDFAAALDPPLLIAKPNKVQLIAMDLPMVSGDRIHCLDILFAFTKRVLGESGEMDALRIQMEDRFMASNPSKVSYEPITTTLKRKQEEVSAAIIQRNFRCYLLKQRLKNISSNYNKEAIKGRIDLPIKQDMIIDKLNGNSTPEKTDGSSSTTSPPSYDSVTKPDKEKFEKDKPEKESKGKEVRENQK
T2 sequence (Q15858 whole entry): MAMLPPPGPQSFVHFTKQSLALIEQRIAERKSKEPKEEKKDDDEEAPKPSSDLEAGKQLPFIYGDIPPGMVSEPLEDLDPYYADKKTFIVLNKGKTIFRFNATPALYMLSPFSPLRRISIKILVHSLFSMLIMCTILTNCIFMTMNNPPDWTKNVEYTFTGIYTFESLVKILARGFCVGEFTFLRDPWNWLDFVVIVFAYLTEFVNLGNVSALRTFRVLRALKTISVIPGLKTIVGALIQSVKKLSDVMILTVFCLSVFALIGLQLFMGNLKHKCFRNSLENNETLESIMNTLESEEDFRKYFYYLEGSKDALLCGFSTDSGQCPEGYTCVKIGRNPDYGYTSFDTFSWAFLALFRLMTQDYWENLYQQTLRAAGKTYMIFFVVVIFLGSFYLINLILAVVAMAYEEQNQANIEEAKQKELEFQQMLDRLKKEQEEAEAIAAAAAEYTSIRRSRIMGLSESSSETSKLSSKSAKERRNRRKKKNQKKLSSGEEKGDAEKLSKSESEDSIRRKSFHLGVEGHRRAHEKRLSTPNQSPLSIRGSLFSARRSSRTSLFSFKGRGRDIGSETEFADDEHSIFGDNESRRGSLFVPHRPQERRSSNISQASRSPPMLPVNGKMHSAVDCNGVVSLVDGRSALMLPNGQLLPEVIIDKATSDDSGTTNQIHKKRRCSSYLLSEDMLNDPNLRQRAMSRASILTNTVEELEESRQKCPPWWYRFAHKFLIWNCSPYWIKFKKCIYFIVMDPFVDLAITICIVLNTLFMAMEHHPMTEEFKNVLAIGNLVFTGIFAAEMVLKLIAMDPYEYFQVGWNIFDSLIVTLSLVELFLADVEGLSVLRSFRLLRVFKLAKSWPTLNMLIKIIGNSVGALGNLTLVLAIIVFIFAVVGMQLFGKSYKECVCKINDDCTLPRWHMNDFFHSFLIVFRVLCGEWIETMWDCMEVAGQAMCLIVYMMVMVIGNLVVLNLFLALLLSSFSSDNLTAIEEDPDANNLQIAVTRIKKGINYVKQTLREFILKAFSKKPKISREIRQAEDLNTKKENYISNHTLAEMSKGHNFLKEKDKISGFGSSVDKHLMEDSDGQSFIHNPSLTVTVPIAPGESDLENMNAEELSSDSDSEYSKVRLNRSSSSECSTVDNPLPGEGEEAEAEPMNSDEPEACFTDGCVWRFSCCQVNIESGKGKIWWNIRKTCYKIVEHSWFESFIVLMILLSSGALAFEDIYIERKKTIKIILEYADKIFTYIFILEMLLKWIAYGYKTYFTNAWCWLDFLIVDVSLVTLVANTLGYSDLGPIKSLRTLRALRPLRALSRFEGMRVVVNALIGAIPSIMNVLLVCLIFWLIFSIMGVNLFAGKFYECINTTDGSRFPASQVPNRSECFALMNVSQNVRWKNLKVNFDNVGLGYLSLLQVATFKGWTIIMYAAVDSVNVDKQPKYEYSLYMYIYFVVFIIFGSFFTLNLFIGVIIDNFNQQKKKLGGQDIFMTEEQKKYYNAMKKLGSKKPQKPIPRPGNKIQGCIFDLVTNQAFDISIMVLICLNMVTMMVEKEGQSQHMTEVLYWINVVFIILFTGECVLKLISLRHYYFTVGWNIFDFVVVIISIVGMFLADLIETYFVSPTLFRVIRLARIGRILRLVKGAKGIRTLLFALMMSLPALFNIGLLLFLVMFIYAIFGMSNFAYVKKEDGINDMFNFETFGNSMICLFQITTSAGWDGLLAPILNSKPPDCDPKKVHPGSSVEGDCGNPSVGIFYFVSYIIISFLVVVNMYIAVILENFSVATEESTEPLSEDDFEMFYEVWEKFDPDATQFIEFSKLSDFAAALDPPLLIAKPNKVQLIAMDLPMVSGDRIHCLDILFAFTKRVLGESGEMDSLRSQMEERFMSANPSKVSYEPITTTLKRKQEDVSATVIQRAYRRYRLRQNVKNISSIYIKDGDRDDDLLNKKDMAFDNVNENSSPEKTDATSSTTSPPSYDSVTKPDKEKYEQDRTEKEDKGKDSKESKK
Sequence of Nav1.3 (Q9NY46 whole entry, looked up): as the sequence (Q9NY46 whole entry) above

For `O=S(=O)(CCc1ccc(C(F)(F)F)cc1)c1ccc(S(=O)(=O)Nc2nccs2)cc1` [Compound 20, N-(thiazol-2-yl)-4-(4-(trifluoromethyl)phenethylsulfonyl)benzenesulfonamide], the IC50 [1] was 160 nM and the IC50 [2] was over 10000 nM.

`O=S(=O)(Nc1nccs1)c1ccc(S(=O)(=O)c2ccccc2)cc1` [Compound 65, 4-(phenylsulfonyl)-N-(thiazol-2-yl)benzenesulfonamide] gave an IC50 ([1]; estimated IC-50 from single point % inhibition, HEK cells, 8 sec prepulse to V1/2, step to 0 mV, read-out: hSCN3A EIC-50) of 5000 nM and an IC50 ([2]; estimated IC-50 from single point % inhibition, HEK cells, 8 sec prepulse to V1/2, step to 0 mV, read-out: hSCN9A EIC-50) of 2700 nM.

In the case of `NC1=N[C@H](O)[C@H]2[C@H]3O[C@]4(O)O[C@@H]([C@@H](O)[C@@]2(N1)[C@@H]4O)[C@]3(O)CO` [TTX, tetrodotoxin], the IC50 [3] is listed as 50000 nM, the IC50 [4] is listed as 6 nM and the IC50 [5] is listed as 1000 nM. The IC50 [6] was 10 nM, the IC50 [7] was 15 nM and the IC50 [8] was 10 nM.
